In a melting point compilation (Tetko et al.; mined from patent text by program, amines drawn as free bases though some values may be those of a salt):

Structure (SMILES) | melting point [°C]
CC(=O)OCc1ccc(-c2ccc(COC(C)=O)cc2)cc1 | 86 to 87
CC(=O)Nc1ccc2c(c1)CCCC2 | 62
O=c1[nH]c2ccc(CCN3CCN(c4nncc5ccccc45)CC3)cc2o1 | 200
Cc1ccc(C)c(NC(=O)C(C)c2ccc(N)c([N+](=O)[O-])c2)c1 (stereo not given) | 187 to 188
CC(=O)Nc1ccc(C(=S)NN)cc1 | 220 to 221
Clc1nccc2scc(Br)c12 | 153 to 155
CNC(=O)c1ccc(N2CCNCC2)cc1 | 154 to 156
O[C@@H]1CN(CCNc2ncccn2)CC[C@H]1NCc1ccccc1 (relative stereo) | 127
CC1c2ccccc2CCC1CC#N (stereo not given) | < 20
Cc1ccc(C2CCCCC2)n1CC[C@H]1C[C@H](O)CC(=O)O1 (relative stereo) | 129 to 130
CSc1ccc(Oc2ccc([N+](=O)[O-])cc2)c(C)c1 | 81.6 to 84.4
COc1ccc(S(=O)(=O)Nc2c(C#N)cc(C)cc2C(=O)O)cc1 | 162
O=C(O)c1ccc(-c2ccc(I)cc2)cc1 | 303 to 305
CCCCCCNc1nc(N)ccc1[N+](=O)[O-] | 69 to 73
C=CCNc1c(CO)cnc2cn[nH]c12 | 190 to 192
C#CCC1CC2C3CCC(=O)C3(C)CCC2C2(C)CCC(=O)C=C12 (stereo not given) | 145 to 146
N#Cc1cccc(COc2ccc3ccccc3c2)c1 | 60 to 61
COc1ccc2c(c1O)C13CCN(CC4CC4)C(C2)C1(Cc1ccccc1)CCC(=O)C3 (stereo not given) | 122 to 124
O=C(NCCc1ccccc1)c1ccccc1I | 125 to 126
Cc1nc2cc(-c3ccc(C=C4SC(=O)NC4=O)cn3)cc(OCc3ccccc3)c2o1 | 245
CNC(=O)c1ccc(C(F)(F)F)c(N)c1 | 114 to 115
CCCCCC(=O)C=[PH2]c1ccccc1 | 73 to 74
O=c1cc(-c2ccccc2)c2cc(C(c3ccccc3)n3ccnc3)ccc2[nH]1 (stereo not given) | 253

Structure (SMILES) | melting point [°C]
CCCn1nc(C2CC2)c(C(=O)OCC)c1Cc1ccc(-c2ccccc2-c2nnn(C(c3ccccc3)(c3ccccc3)c3ccccc3)n2)cc1 | 154 to 159
OCc1c(Cl)nc2ccccc2c1-c1ccc(F)cc1 | 159 to 160
O=C1NC(=O)C(Cc2c[nH]c3ccc(Cl)cc23)N1 (stereo not given) | 226 to 228
COC(=O)CN1C(=O)CN=C(c2ccccc2Cl)c2cc(Cl)ccc21 | 193 to 194
CCNC=C(C(=O)C=Cc1ccc2c(c1)OCO2)C(=O)OC | 124 to 125
Cc1nc(Nc2ccccc2)sc1-c1nc2ccccc2c(=O)n1-c1ccccc1 | 260 to 262
Cc1c(N)cccc1C1=NC(C)(C)CO1 | 45
COC(=O)c1cc2c3ccccc3nc(C)n2n1 | 155 to 156
CC1(C)Oc2ccc(C#N)cc2[C@@H](NNC(=O)c2ccccc2)[C@@H]1O (relative stereo) | 197 to 199
CCNC1(c2ccccc2Cl)C(=O)N(Cc2ccc(C(=O)NC(C)(C)CO)cc2)c2ccc(Cl)cc21 (stereo not given) | 170 to 172
CCCCCCCCCCCCC(C)COc1ccc(C(=O)O)o1 (stereo not given) | 88 to 90
c1ccc2c(c1)c1ccccc1n2-c1ccc2c(c1)Sc1ccc(-n3c4ccccc4c4ccccc43)cc1S2 | 350
CC(C)(C)OC(=O)CN1C(=O)[C@@H](N[C@@H](CCCCNC(=O)OC(C)(C)C)C(=O)O)CSc2ccccc21 | 134 to 135
CC1(c2ccc(OCc3ccccc3[Si](C)(C)C)cc2)OC(=O)N(Nc2ccccc2)C1=O (stereo not given) | 112 to 114
Cn1ccc(=O)c(OCc2ccccc2)c1C(O)c1ccc2c(c1)OCO2 (stereo not given) | 230 to 232
CCCCCn1nc(-c2cccc(C(F)(F)F)c2F)c(=O)c2cccc(OC)c21 | 82 to 84
CCOC(=O)c1c(C)nc(N2CCCCC2)c2nnn(CC)c12 | 45 to 47
CON=C1CCc2c(cccc2OCC(O)CN2CCN(C(c3ccccc3)c3ccccc3)CC2)C1 (stereo not given) | > 183
CC(C)(C)OC(=O)NCC(=O)N1CCC[C@H]1C(=O)OC[C@H](Cc1ccccc1)Nc1ccc(O)c2c1C(=O)c1c(O)cccc1C2=O | 100
NCCCNC(=O)c1ccc(-c2ccc3nnn(Cc4ccc5ncccc5c4)c3n2)cc1F | 292 to 294
O=C(O)C1c2ccccc2COc2ccc(Cl)cc21 (stereo not given) | 182 to 183
Clc1ccc(C(Cl)(Cl)Cl)cn1 | 51 to 54
CCCOc1ccc(-c2csc(-c3ccccc3)c2CC(=O)N=C(N)N)cc1 | 131 to 132

Structure (SMILES) | melting point [°C]
Cc1ccc(C2OC(CO)C(O)C(O)C2O)cc1Cc1ccc(-c2ccc(F)nc2)s1 (stereo not given) | 130 to 132
COc1cc(C)nc(N(C)C(=O)NS(=O)(=O)c2c(Cl)cccc2Cl)n1 | 170 to 171
O=S(=O)(c1ccccc1)N1CCC(C(=NCc2ccccc2)c2ccc(F)cc2)CC1 | 153 to 155
O=Cc1ccc(OS(=O)(=O)C(F)(F)F)cc1Cl | 125 to 127
O=S(=O)(Nc1cc(Cl)c(Cl)c(Cl)c1)c1cc(S(=O)(=O)Nc2cc(Cl)c(Cl)c(Cl)c2)c2cc(O)ccc2c1 | 164 to 166
CC(=Cc1cccc([N+](=O)[O-])c1)C(=O)Oc1ccc(Cl)cc1 | 102
S=c1nc(NCCCOc2cccc(CN3CCCCC3)c2)cc[nH]1 | 180 to 181
Cn1cc2c(nc(NC(=O)Nc3ccc(CC(=O)NCCCNC(=O)OC(C)(C)C)cc3)n3nc(-c4ccco4)nc23)n1 | 198 to 205
CN1CC(CNC(=O)C(F)(F)F)c2c[nH]c3cccc(c23)C1=O (stereo not given) | 174 to 177
CC1COc2c(F)c(F)c(N)c3c(=O)[nH]c(=O)n1c23 (stereo not given) | > 280
COc1ccccc1-n1c(=O)[nH]c2c(C(N)=O)nc(-c3cccc4[nH]ncc34)nc21 | 280
Cn1c(-c2ccc(C(=O)O)cc2)cc2cc3c(cc21)C(C)(C)CCC3(C)C | 288 to 289
Nc1ncnc2c1ncn2Cc1nc2ccc(Br)cc2c(=O)n1-c1ccccc1Cl | 284 to 285
O=c1ncc(Cl)cn1Cc1ccccc1 | 197
Fc1cccc(C(c2ccnc3ccccc23)n2ccnc2)c1 (stereo not given) | 140
O=C1C2Cc3c(ncn3Cc3ccccc3)CN2C(=S)N1c1ccccc1 (stereo not given) | 224 to 226
CCCCc1ccc(NC2=NCCS2)cc1 | 73 to 75
CC(=O)Oc1ccc(C=Cc2ccc3ccccc3n2)cc1 | 127 to 128
CCOC(=O)c1cc(=O)c2ccc(OS(=O)(=O)c3ccc(C)cc3)c([N+](=O)[O-])c2o1 | 125
CC(C)Cn1c(CNC(=O)OC(C)(C)C)c(-c2ccc(F)cc2)c2cc(OCc3ccccc3)ccc2c1=O | 184 to 185
CC(=O)NCC1CN(c2ccc(-c3cccc(CCl)c3)c(F)c2)C(=O)O1 (stereo not given) | 128 to 130
O=C(O)COCc1cc(Br)ccc1C(=O)O | 194 to 196

Next, values leading:

melting point [°C] | Structure (SMILES)
188 | CNC(=O)[C@H](NC(=O)c1ccc(F)cc1C(F)(F)F)[C@@H](CN)c1ccccc1 (racemic)
144 to 145 | CC(C)N(O)C(=O)Cc1ccc2c(c1)C(=O)c1ccccc1CO2
116 to 120 | S=C1CC(c2ccc(Cl)cc2)Oc2ccccc21 (stereo not given)
69 to 71 | O=C1C=C/C(=C/c2cccc(C(F)(F)F)c2)O1
174 to 176 | O=S(c1ccc(Cl)cc1)c1cc(C(F)(F)F)[nH]c1-c1ccc(Cl)cc1 (stereo not given)
194 to 197 | COc1ccc(C2C(C#N)=C(N)OC3=C2C(=O)CC(c2cccc4ccccc24)C3)cc1 (stereo not given)
127 to 129 | CC(c1ccc(F)cc1)N(O)C(N)=O (stereo not given)
55 to 60 | Cc1nc(C#Cc2ccccc2)sc1C
184 to 186 | Nc1coc2ccc(Cl)cc2c1=O
140 to 143 | Cc1nc(-n2cc(COc3ccccc3)nn2)sc1C(=O)NCc1ccccc1
148 to 151 | O=C(N[C@H]1CC[C@H](O)CC1)OCc1ccccc1
191 to 193 | O=C(Nc1ccc(N2CCN(Cc3ccc[nH]3)CC2)cc1)c1ccccc1-c1ccc(C(F)(F)F)cc1
79 to 79.5 | CCCCC(=O)c1ccc(-c2ccccc2)cc1
126 to 128 | O=C(CCCN1CCC(c2ccccc2Cc2ccccc2)C1)c1ccc(F)cc1 (stereo not given)
> 250 | CCOCc1nc2c(N)nc3cc(N4CCOC4=O)ccc3c2n1CC(C)(C)O
141 to 142 | CCN(CC)CCNc1nc(N)nc(-c2cc(Cl)ccc2Cl)n1

melting point [°C] | Structure (SMILES)
130 | CCCCn1nc2c(N)nc3ccccc3c2c1CC(C)(C)O
220 to 222 | CCOC(=O)c1cn(-c2nc[nH]n2)cn1
102 | C=CCc1cc(O)c(CC=C)c(C=O)c1O
133 to 135 | COc1ccc2c(c1)OCCC(C(=O)N1CCN(C(=O)c3cc(OC)c(OC)c(OC)c3)CC1)=C2
129 to 131 | COc1ncnc(-c2cc([N+](=O)[O-])c(C#N)cc2F)c1C
246 | O=C(O)c1cc(C(=O)O)c2c(Cl)cc(Cl)cc2n1
> 250 | CCCn1c(=O)sc2cc(F)c(-n3c(=O)cc(CC)[nH]c3=O)cc21
185 to 187 | FC(F)Oc1ccc(-c2nc3ccc(OC(F)(F)F)cc3[nH]2)cc1
152 to 153 | COc1ccc(COC2CC(n3cc(C(F)(F)F)c(=O)n(C(=O)c4ccccc4)c3=O)OC2CO)cc1 (stereo not given)
92 to 94 | CCCCCCCCCCCCCCOc1cc(O)cc(C(=O)OC)c1
109 to 112 | COC(=O)Nc1c(Cl)ccc(C)c1F
143 to 145 | COc1ccc(OCC2CC(Cn3ccnc3)(c3ccc4ccccc4c3)N(C)O2)cc1 (stereo not given)
155 to 181 | Cc1cc(-c2c3ccccc3c(C)c3sc4ccccc4c23)cc(C)c1OCC(=O)O
74 to 75 | CCN(CC)CCOc1ccc(C(O)(CC)c2cccc(C(F)(F)F)c2)cc1 (stereo not given)
153 to 157 | CC(C)(C)C(=O)Nc1ccc(Br)cc1-c1ccnc(C(F)(F)F)n1
181 to 182 | COc1nc2cc(Cl)c(C)c(N)c2nc1OC
